Assay type in all cases: in vivo
Assay [1] deals with larvae of the mustard beetle (Phaedon cochleariae). The experiment in a line: Phaedon cochleariae larvae test (sprayed cabbage leaves populated with larvae). The settings on record: 4 ppm, spray. An excerpt:
(§1) The expected action for a given combination of two active ingredients can be calculated according to S. R. Colby, Weeds 15 (1967), 20-22) as follows:
(§2) • X is the kill rate, expressed in % of the untreated control, using the active ingredient A at an application rate of m g/ha or in a concentration of m ppm, • Y is the kill rate, expressed in % of the untreated control, using the active ingredient B at an application rate of n g/ha or in a concentration of n ppm, • E is the kill rate, expressed in % of the untreated control, using the active ingredients A and B at application rates of m and n g/ha or in a concentration of m and n ppm, then is
(§3) If the actual insecticidal kill rate is greater than that calculated, the kill rate of the combination is superadditive, i.e. there is a synergistic effect. In this case, the actually observed kill rate must be greater than the value calculated from the above formula for the expected kill rate (E).
Solvent: 7 parts by weight of dimethylformamide Emulsifier: 2 parts by weight of alkyl aryl polyglycol ether
(§4) To produce an appropriate active ingredient formulation, 1 part by weight of active ingredient is mixed with the stated amounts of solvent and emulsifier, and the concentrate is diluted with emulsifier-containing water to the desired concentration.
Cabbage leaves (Brassica oleracea) are treated by spraying with the active ingredient formulation of the desired concentration and populated with larvae of the mustard beetle (Phaedon cochleariae) while the leaves are still moist.
After the desired time, the kill rate in % is determined 100% means that all beetle larvae have been killed; 0% means that none of the beetle larvae have been killed. The kill rates determined are entered into Colby's formula.

The test system of assay [2] is green peach aphid (Myzus persicae). The experiment in a line: Myzus persicae test (spray treatment of infested cabbage leaves).
Source text: as §1, §2, §3
Solvent: 7 parts by weight of dimethylformamide Emulsifier: 2 parts by weight of alkylaryl polyglycol ether
as §4
Cabbage leaves (Brassica oleracea) severely infested by the green peach aphid (Myzus persicae) are treated by spraying with the active ingredient formulation in the desired concentration.
(§5) After the desired time, the kill rate in % is determined 100% means that all of the aphids have been killed; 0% means that none of the aphids have been killed. The kill rates determined are entered into Colby's formula.

Assay [3] deals with cotton aphid (Aphis gossypii). Kind of assay: Aphis gossypii test (spray treatment of infested cotton plants).
Source text: as §1, §2, §3
Solvent: 7 parts by weight of dimethylformamide Emulsifier: 2 parts by weight of alkylaryl polyglycol ether […]
as §5

As to `C/C(=N\C#N)N(C)Cc1ccc(Cl)nc1` [acetamiprid], the “Kill rate in % after 6 days” value in assay [1] and in assay [2] (0.8 ppm) was 0% each time.

Regarding `CC1(C)[C@H](C=C(Cl)Cl)[C@H]1C(=O)OCc1c(F)c(F)cc(F)c1F` [transfluthrin], the “Kill rate in % after 6 days” value in assay [1], in assay [2] (0.8 ppm) and in assay [3] (0.16 ppm) was 0% throughout. Moreover, the “Kill rate in % after 1 d” value in assay [2] (0.16 ppm) was determined as 0%.

On to `N#C/N=C1\SCCN1Cc1ccc(Cl)nc1` [thiacloprid], for which the “Kill rate in % after 6 days” value in assay [1] turned out to be 0%; in assay [3] (0.8 ppm), 25%. The “Kill rate in % after 1 d” value in assay [2] (0.8 ppm) was found to be 25%.

These data come from patent publication US20110269625A1, “Synergistic insecticidal mixtures” (Bayer CropScience AG, priority 2008, published 2011).
